IC50 and AC50 data for 1 compound are collected here from ChEMBL document CHEMBL1201862, “PubChem BioAssay data set” (2004).

Calls of active or inactive are those of the source.

Test [1] concerns Jurkat. Kind of test: SAR Analysis of small molecule inhibitors of T-cell specific antigen receptor-induced NF-kB activation in a Jurkat cell line using a luminescence assay - Set 2. [Related pubchem assays (depositor defined):AID435003, AID435012, AID465]. The conditions noted are these: Homo sapiens. In kind it is functional, cell-based.
A short description of test [2]: Counterscreen for AddAB inhibitors: absorbance-based bacterial cell-based high throughput dose response assay for inhibitors of bacterial viability. [Related pubchem assays (depositor defined):AID435030, AID449728, AID449731, AID488942, AID488955, AID488956]. The format is functional.
The nature of test [3]: loss of viability in HepG2 cells – cell-based, CellTiter-Glo, cherry-picked, cytotoxicity control for Shn3 inhibitor project, dose response (AID 624134). The format is functional.
Test [4] is described as follows: non-specific 3'UTR reporter inhibition in Clone20-Shn3RL – cell-based, Renilla luciferase, cherry-picked, counter-screen for Shn3 inhibitor project, dose response (AID 624133). In kind it is functional.
Test [5] addresses T1, Exodeoxyribonuclease V (Escherichia coli (strain K12), UniProt P04993+P07648+P08394).
T1 sequence (P04993 whole entry): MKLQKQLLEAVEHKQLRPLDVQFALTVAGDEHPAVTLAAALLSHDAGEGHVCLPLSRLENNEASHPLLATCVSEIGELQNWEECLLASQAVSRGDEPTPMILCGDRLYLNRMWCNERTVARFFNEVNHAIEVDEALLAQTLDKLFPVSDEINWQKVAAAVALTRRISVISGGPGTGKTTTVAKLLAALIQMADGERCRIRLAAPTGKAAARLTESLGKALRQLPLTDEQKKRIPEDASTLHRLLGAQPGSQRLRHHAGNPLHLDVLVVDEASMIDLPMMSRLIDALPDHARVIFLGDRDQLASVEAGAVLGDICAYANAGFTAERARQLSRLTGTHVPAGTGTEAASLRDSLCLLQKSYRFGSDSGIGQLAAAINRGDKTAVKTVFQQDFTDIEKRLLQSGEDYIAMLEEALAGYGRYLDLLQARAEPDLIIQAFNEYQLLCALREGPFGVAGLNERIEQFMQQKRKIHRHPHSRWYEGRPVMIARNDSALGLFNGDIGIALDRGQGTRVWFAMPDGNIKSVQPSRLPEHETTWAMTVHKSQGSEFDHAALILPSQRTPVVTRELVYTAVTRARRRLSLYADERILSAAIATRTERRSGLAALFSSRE
T1 sequence (P07648 whole entry): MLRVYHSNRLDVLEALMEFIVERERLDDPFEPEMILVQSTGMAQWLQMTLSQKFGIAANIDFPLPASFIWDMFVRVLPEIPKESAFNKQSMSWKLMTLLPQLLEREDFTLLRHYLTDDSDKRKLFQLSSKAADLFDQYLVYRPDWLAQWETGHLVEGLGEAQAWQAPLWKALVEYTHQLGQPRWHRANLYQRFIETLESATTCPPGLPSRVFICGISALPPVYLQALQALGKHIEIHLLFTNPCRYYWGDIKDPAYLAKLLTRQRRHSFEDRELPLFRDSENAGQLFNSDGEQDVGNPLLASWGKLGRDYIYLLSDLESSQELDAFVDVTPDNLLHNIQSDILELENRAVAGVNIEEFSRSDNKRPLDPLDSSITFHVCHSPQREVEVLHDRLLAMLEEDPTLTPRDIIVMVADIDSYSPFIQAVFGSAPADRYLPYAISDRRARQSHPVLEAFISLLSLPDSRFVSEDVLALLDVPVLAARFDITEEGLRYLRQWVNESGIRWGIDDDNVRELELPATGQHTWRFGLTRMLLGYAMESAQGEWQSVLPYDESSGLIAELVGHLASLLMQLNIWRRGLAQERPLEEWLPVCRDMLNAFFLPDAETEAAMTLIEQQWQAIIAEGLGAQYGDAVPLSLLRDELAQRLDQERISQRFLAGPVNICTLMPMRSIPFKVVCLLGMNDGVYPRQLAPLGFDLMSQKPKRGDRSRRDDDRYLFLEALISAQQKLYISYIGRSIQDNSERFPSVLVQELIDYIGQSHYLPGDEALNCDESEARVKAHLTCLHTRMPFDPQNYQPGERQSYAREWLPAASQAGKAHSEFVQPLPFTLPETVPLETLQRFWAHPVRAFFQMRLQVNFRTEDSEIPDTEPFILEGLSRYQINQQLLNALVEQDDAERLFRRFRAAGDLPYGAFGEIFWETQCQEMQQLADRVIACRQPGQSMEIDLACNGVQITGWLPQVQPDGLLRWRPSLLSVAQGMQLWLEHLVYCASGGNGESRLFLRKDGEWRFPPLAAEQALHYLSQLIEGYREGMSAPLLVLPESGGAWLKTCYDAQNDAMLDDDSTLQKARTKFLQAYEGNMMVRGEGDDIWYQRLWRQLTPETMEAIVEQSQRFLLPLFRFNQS
T1 sequence (P08394 whole entry): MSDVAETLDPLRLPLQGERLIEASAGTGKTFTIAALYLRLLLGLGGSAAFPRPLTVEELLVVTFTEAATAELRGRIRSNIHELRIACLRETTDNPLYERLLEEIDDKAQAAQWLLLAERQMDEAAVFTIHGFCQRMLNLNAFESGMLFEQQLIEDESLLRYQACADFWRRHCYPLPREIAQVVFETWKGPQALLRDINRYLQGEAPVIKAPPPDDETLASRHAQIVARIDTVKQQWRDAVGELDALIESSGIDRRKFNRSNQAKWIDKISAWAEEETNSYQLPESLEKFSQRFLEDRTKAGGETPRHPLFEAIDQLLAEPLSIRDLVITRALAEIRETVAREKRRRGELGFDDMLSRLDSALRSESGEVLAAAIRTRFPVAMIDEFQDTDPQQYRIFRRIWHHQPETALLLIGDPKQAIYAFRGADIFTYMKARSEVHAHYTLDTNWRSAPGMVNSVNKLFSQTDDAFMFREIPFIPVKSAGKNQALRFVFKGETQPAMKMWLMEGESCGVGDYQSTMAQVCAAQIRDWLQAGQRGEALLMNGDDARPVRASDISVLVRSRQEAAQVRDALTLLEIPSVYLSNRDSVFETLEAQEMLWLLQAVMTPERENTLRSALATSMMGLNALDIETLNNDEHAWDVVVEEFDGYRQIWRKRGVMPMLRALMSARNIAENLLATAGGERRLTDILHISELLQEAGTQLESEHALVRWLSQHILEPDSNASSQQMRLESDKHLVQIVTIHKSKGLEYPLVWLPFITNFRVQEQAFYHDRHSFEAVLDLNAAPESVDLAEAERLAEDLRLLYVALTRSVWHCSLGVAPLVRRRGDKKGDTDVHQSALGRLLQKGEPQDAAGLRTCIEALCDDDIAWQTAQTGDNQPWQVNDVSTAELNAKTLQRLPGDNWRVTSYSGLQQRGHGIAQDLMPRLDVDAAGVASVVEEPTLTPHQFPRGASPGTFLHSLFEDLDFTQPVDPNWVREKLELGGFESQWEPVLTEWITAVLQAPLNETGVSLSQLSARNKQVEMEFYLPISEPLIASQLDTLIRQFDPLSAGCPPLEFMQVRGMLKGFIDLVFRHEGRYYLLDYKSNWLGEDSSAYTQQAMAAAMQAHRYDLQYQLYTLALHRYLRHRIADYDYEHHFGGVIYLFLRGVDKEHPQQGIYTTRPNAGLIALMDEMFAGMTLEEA
Kind of test: RecBCD inhibition via phage-restricted bacterial growth – absorbance, V66 E. coli, mutant T4 phage, counter-screen for AddAB inhibitor project, dose response (AID 492957). The format is functional, cell-based, Escherichia coli str. K-12 substr. MG1655. On the technique in general: A counterscreen serves to expose hits that act by an unwanted route or on another target.

Test [6] deals with HEK293. Kind of test: SAR Analysis of small molecule inhibitors of T-cell specific antigen receptor-induced NF-kB activation in a HEK-293T cell line using a luminescence assay - Set 2. [Related pubchem assays (depositor defined):AID435003, AID435012, AID489026]. In kind it is functional, cell-based. The conditions noted are these: Homo sapiens.
Test [7] is described as follows: reduction of Shn3 3'UTR-driven luciferase in osteoblasts – cell-based, Clone20 osteoblasts, firefly luciferase, cherry-picked, dose response (AID 624132).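 Further: firefly luciferase luminescence from reporter carrying the Shn3 3'UTR in osteoblasts.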 In kind it is functional.
For test [8], the system named is HEK293. Kind of test: HEK293T cell viability loss, resazurin readout – resazurin fluorescence, cytotoxicity control for NF-kB activator project, SAR follow-up (AID 493251). The format is functional, cell-based. To be noted: Homo sapiens.

In general, IC50 refers to the concentration needed to halve the response being measured. Usually AC50 stands for the midpoint of the concentration-response curve, whichever way the signal moves. `O=C(Nc1ccc2oc(-c3ccncc3)nc2c1)c1ccc([N+](=O)[O-])o1`: the IC50 is 55.5 µM (inactive) in test [1]; > 119 µM (inactive) in test [2]; > 119 µM (inactive) in test [5]; 41.5 µM (inactive) in test [6]; > 80 µM (inactive) in test [8]. Besides, the AC50 in test [3] was > 70 µM (inactive); in test [4] it was 20.7 µM (active); in test [7] it was 18.6 µM (active).
